Measurements published in patent US20240165281A1, “DUAL MODE RADIOTRACER AND THERAPEUTICS” (Technische Universität München, priority 2021, published 2024).

Key:
PSMA = molecular target: T1, PSMA (Homo sapiens, UniProt Q04609); test: PSMA affinity (IC50), competition with [125I]I-BA-KuE on LNCaP cells; format: binding; details: natLu complex, on ice 60 min, read-out: IC50
T1 construct: PSMA-positive LNCAP cells (300265; Cell Lines Service, Eppelheim, Germany); host or cells: LNCaP cells
Procedure: A mixture of trypsin and EDTA (0.05%, 0.02%) in PBS (Biochrom) was used in order to harvest cells. Cells were counted with a Neubauer hemocytometer (Paul Marienfeld, Lauda-Königshofen, Germany).
Affinity Determinations (IC50)
In the case of metal-complexed ligands, the crude reaction mixture was diluted analogously, without further purification. Cells were harvested 24±2 hours prior to the experiment and seeded in 24-well plates (1.5×10^5 cells in 1 mL/well). […] The media of both steps were combined in one fraction and represent the amount of free radioligand. Afterwards, the cells were lysed with 250 μL of 1 M aqueous NaOH for at least 10 min. After a washing step (250 μL of 1 M NaOH), both fractions, representing the amount of bound ligand, were united. Quantification of all collected fractions was accomplished in a γ-counter. PSMA-affinity determinations were carried out at least three times per ligand.

LNCaP cells = test: Internalization studies in LNCaP cells; format: cell-based; details: 37° C., 60 min
Procedure: PSMA-positive LNCAP cells (300265; Cell Lines Service, Eppelheim, Germany) were cultivated in Dulbecco modified Eagle medium/Nutrition Mixture F-12 with Glutamax (1:1) (DMEM-F12, Biochrom, Berlin, Germany) supplemented with fetal bovine serum (10%, FBS Zellkultur, Berlin, Germany) and kept at 37° C. in a humidified CO2 atmosphere (5%). A mixture of trypsin and EDTA (0.05%, 0.02%) in PBS (Biochrom) was used in order to harvest cells. Cells were counted with a Neubauer hemocytometer (Paul Marienfeld, Lauda-Königshofen, Germany).
For internalization studies, LNCaP cells were harvested 24±2 hours before the experiment and seeded in poly-L-lysine coated 24-well plates (1.25×10^5 cells in 1 mL/well, Greiner Bio-One, Kremsmünster, Austria). After removal of the culture medium, the cells were washed once with 500 μL DMEM-F12 (5% BSA) and left to equilibrate for at least 15 min at 37° C. in […] DMEM-F12 (5% BSA). Each well was treated with either 25 μL of either DMEM-F12 (5% BSA, control) or 25 μL of a 100 μM PMPA (2-(Phosphonomethyl)-pentandioic acid, Tocris Bioscience, Bristol, UK) solution in PBS, for blockade. Next, 25 μL of the radioactive-labelled PSMA inhibitor (10.0 nM in DMEM-F12 (5% BSA)) was added and the cells were incubated at 37° C. for 60 min. The experiment was terminated by placing the 24-well plate on ice for 3 min and consecutive removal of the medium. Each well was carefully washed with 250 μL of ice-cold HBSS. Both fractions from the first steps, representing the amount of free radioligand, were combined. Removal of surface bound activity was accomplished by incubation of the cells with 250 μL of ice-cold PMPA (10 μM in PBS) solution for 5 min and rinsed again with another 250 μL of ice-cold PBS. The internalized activity was determined by incubation of the cells in 250 μL […] aqueous NaOH for at least 10 min. The obtained fractions were combined with those of the subsequent wash step with 250 μL 1 M aqueous NaOH. Each experiment (control and blockade) was performed in triplicate. Free, surface bound and internalized activity was quantified in a y-counter. All internalization studies were accompanied by external reference studies, using ([^125I]I-BA)KuE (c=0.2 nM), which were performed analogously. Data were corrected for non-specific binding and normalized to the specific-internalization observed for the radioiodinated reference compound.

[1] = Apparent molecular weight (MWapp)
[2] = system: LNCaP tumor-bearing male CB-17 SCID mice; test: Biodistribution studies 24 h p.i.
[3] = mean, listed as [^177Lu]Lu-2C013

T1 sequence (Q04609 whole entry): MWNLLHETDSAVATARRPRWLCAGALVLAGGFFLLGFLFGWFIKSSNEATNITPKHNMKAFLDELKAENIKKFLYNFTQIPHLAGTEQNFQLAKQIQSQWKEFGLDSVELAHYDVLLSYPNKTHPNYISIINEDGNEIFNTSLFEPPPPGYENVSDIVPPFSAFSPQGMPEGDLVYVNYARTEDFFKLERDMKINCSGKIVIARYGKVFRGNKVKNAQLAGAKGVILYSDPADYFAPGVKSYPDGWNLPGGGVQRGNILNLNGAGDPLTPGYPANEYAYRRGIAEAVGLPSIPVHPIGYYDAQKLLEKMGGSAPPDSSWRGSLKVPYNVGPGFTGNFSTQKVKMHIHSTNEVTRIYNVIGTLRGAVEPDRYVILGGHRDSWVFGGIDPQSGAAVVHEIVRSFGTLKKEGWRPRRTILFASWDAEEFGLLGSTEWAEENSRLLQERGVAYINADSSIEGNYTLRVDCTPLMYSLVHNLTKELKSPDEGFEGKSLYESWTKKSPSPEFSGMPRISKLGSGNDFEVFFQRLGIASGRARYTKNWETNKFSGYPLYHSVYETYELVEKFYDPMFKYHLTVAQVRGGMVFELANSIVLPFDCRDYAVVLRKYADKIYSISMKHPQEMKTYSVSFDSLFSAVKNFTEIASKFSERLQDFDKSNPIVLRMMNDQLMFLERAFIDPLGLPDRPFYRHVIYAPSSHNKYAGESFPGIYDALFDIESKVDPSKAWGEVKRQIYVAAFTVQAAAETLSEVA

CC(C)(C)[Si](F)(c1ccc(C(=O)NC[C@@H](NC(=O)CN2CCN(CC(=O)O)CCN(CC(=O)O)CCN(CC(=O)O)CC2)C(=O)N[C@H](CO)C(=O)NCCC(=O)NCCC(=O)NCCC[C@@H](NC(=O)CC[C@H](NC(=O)N[C@@H](CCC(=O)O)C(=O)O)C(=O)O)C(=O)O)cc1)C(C)(C)C [Compound 2C013]
IC50 (PSMA): 4.44 nM
Internalization (LNCaP cells; normalized to ([125I]I-BA)KuE): 141 ± 8^ % IBA-KuE
Internalization (LNCaP cells; normalized to reference): 141 ± 8 % IBA
MWapp [1]: 17.6 kDa
Kidneys (24 h) ([2]; Table 1): 0.95 ± 0.42 % iD/g
Tumor (24 h) ([2]; Table 1): 7.59 ± 1.23 % iD/g
In vivo biodistribution (24 h p.i.) blood ([2]; Table 6): 0.0013 ± 0.0007 % iA/g
In vivo biodistribution (24 h p.i.) kidney ([2]; Table 6): 0.95 ± 0.42 % iA/g
In vivo biodistribution (24 h p.i.) tumor ([2]; Table 6): 7.59 ± 1.23 % iA/g
uptake in adrenals ([2]; mean): 0.0618 % iD/g
uptake in blood ([2]; mean): 0.0013 % iD/g
uptake in intestine ([2]; mean): 0.3354 % iD/g
uptake in kidney ([2]; mean): 0.9488 % iD/g
uptake in liver ([2]; mean): 0.2519 % iD/g
uptake in lung ([2]; mean): 0.0438 % iD/g
uptake in pancreas ([2]; mean): 0.0165 % iD/g
uptake in parotid gl. ([2]; mean): 0.0554 % iD/g
uptake in spleen ([2]; mean): 0.3891 % iD/g
uptake in stomach ([2]; mean): 0.0846 % iD/g
uptake in tumor ([2]; mean): 7.5897 % iD/g
uptake in bone ([2]; mean, listed as [^177Lu]2C013): 0.037 % iD/g
uptake in heart ([2]; mean, listed as [^177Lu]2C013): 0.019 % iD/g
uptake in muscle ([2]; mean, listed as [^177Lu]2C013): 0.004 % iD/g
uptake in submand. gl. ([2]; mean, listed as [^177Lu]2C013): 0.036 % iD/g
uptake in bone [2, 3]: 0.0370 % iD/g
uptake in heart [2, 3]: 0.0190 % iD/g
uptake in muscle [2, 3]: 0.0040 % iD/g
uptake in submand. gl. [2, 3]: 0.0360 % iD/g
tumor-to-organ ratio adrenals ([2]; n = 4, mean): 131.27
tumor-to-organ ratio blood ([2]; n = 4, mean): 6891.48
tumor-to-organ ratio bone ([2]; n = 4, mean): 208.29
tumor-to-organ ratio heart ([2]; n = 4, mean): 403.61
tumor-to-organ ratio intestine ([2]; n = 4, mean): 60.29
tumor-to-organ ratio kidney ([2]; n = 4, mean): 9.04
tumor-to-organ ratio liver ([2]; n = 4, mean): 31.82
tumor-to-organ ratio lung ([2]; n = 4, mean): 189.80
tumor-to-organ ratio muscle ([2]; n = 4, mean): 2075.70
tumor-to-organ ratio pancreas ([2]; n = 4, mean): 492.10
tumor-to-organ ratio parotid gl. ([2]; n = 4, mean): 140.11
tumor-to-organ ratio spleen ([2]; n = 4, mean): 21.03
tumor-to-organ ratio stomach ([2]; n = 4, mean): 145.92
tumor-to-organ ratio submand. gl. ([2]; n = 4, mean): 211.04
Activity accumulation adrenals ([2]; repeated dataset, n = 5, mean): 0.1327 % ID/g
Activity accumulation blood ([2]; repeated dataset, n = 5, mean): 0.0016 % ID/g
Activity accumulation bone ([2]; repeated dataset, n = 5, mean): 0.1331 % ID/g
Activity accumulation heart ([2]; repeated dataset, n = 5, mean): 0.023 % ID/g
Activity accumulation intestine ([2]; repeated dataset, n = 5, mean): 0.0615 % ID/g
Activity accumulation kidney ([2]; repeated dataset, n = 5, mean): 1.0833 % ID/g
Activity accumulation liver ([2]; repeated dataset, n = 5, mean): 0.3202 % ID/g
Activity accumulation lung ([2]; repeated dataset, n = 5, mean): 0.0548 % ID/g
Activity accumulation muscle ([2]; repeated dataset, n = 5, mean): 0.0056 % ID/g
Activity accumulation pancreas ([2]; repeated dataset, n = 5, mean): 0.0173 % ID/g
Activity accumulation parotid gl. ([2]; repeated dataset, n = 5, mean): 0.063 % ID/g
Activity accumulation spleen ([2]; repeated dataset, n = 5, mean): 0.4246 % ID/g
Activity accumulation stomach ([2]; repeated dataset, n = 5, mean): 0.0349 % ID/g
Activity accumulation submand. gl. ([2]; repeated dataset, n = 5, mean): 0.038 % ID/g
Activity accumulation tumor ([2]; repeated dataset, n = 5, mean): 10.1512 % ID/g
tumor-to-organ ratio adrenals ([2]; repeated dataset, n = 5, mean): 78.58
tumor-to-organ ratio blood ([2]; repeated dataset, n = 5, mean): 6950.64
tumor-to-organ ratio bone ([2]; repeated dataset, n = 5, mean): 73.24
tumor-to-organ ratio heart ([2]; repeated dataset, n = 5, mean): 475.05
tumor-to-organ ratio intestine ([2]; repeated dataset, n = 5, mean): 263.86
tumor-to-organ ratio kidney ([2]; repeated dataset, n = 5, mean): 9.48
tumor-to-organ ratio liver ([2]; repeated dataset, n = 5, mean): 31.51
tumor-to-organ ratio lung ([2]; repeated dataset, n = 5, mean): 184.32
tumor-to-organ ratio muscle ([2]; repeated dataset, n = 5, mean): 1867.35
tumor-to-organ ratio pancreas ([2]; repeated dataset, n = 5, mean): 587.5
tumor-to-organ ratio parotid gl. ([2]; repeated dataset, n = 5, mean): 172.33
tumor-to-organ ratio spleen ([2]; repeated dataset, n = 5, mean): 25.43
tumor-to-organ ratio stomach ([2]; repeated dataset, n = 5, mean): 286.18
tumor-to-organ ratio submand. gl. ([2]; repeated dataset, n = 5, mean): 270.92
T/K-ratio ([2]; tumor/kidney, Table 1): 9.04 ± 3.09
